In patent US20260347338A1, “PYRIMIDINE/PYRIDINE DERIVATIVES OR SALTS THEREOF AND PHARMACEUTICAL COMPOSITIONS COMPRISING THE SAME” (YUHAN CORPORATION, priority 2023, published 2026):
Structures can show the parent of a compound that is named as a salt.

Target: T1, human recombinant HPK1 (Homo sapiens, UniProt Q92918)
T1 construct: purchased BPS Bioscience
Test: Inhibitory activity against human recombinant HPK1 (TR-FRET)
Assay type: biochemical
Details: ULight-p70S6K peptide, ATP at Km, room temperature, 1 hour, 0.32 to 1000 nM compound
Protocol: Test Example: Evaluation of Inhibitory Activity Against Human Recombinant HPK1
The inhibitory activity against human recombinant HPK1 was evaluated using the Time-Resolved Fluorescence Resonance Energy Transfer (TR-FRET) technology of Perkin-Elmer. The test compound was prepared as a 20 mM stock solution with dimethyl sulfoxide (DMSO), serially diluted in a buffer solution, and used at final compound concentrations of 0.32 to 1000 nM. The evaluation of inhibitory activity was carried out at room temperature, using recombinant human HPK1 (BPS Bioscience). Briefly, recombinant human HPK1, serially diluted each test compound, ULight-p70S6K peptide substrate (PerkinElmer), and ATP at each concentration (Km and final concentration) were added to a kinase buffer solution (50 mM HEPES pH 7.4, 10 mM MgCl2, 1 mM EGTA, 3 mM MnCl2, 2 mM DTT, and 0.01% Tween-20). The resulting mixture was added to each well of a 384-well plate (Optiplate™ 384, white, PerkinElmer). The enzyme reaction was carried out at room temperature for 1 hour. After the reaction was suspended by adding 4 μL of a stop solution (10 mM EDTA) thereto, the mixture was stirred for 1 minute and then a detection solution containing Europium-labeled anti-phosphopeptide antibody (final concentration: 2 nM, PerkinElmer) was added thereto. The signals of TR-FRET at excitation wavelength (320 nm) and emission wavelength (665 nm) were detected using a microplate reader (Envision Multilabel Reader, Perkin-Elmer). Inhibition by the test compound was measured as % inhibition in the signals, compared to the control group treated with DMSO only. The IC50 value of each compound was calculated using the GraphPad Prism program (GraphPad Software, Inc., San Diego, CA, USA). The IC50 values of test compounds for inhibitory activity against HPK1 were classified as follows: • A: IC50≤10 nM • B: 10 nM<IC50≤50 nM • C: 50 nM<IC50≤100 nM • D: IC50>100 nM

T1 sequence (Q92918 whole entry): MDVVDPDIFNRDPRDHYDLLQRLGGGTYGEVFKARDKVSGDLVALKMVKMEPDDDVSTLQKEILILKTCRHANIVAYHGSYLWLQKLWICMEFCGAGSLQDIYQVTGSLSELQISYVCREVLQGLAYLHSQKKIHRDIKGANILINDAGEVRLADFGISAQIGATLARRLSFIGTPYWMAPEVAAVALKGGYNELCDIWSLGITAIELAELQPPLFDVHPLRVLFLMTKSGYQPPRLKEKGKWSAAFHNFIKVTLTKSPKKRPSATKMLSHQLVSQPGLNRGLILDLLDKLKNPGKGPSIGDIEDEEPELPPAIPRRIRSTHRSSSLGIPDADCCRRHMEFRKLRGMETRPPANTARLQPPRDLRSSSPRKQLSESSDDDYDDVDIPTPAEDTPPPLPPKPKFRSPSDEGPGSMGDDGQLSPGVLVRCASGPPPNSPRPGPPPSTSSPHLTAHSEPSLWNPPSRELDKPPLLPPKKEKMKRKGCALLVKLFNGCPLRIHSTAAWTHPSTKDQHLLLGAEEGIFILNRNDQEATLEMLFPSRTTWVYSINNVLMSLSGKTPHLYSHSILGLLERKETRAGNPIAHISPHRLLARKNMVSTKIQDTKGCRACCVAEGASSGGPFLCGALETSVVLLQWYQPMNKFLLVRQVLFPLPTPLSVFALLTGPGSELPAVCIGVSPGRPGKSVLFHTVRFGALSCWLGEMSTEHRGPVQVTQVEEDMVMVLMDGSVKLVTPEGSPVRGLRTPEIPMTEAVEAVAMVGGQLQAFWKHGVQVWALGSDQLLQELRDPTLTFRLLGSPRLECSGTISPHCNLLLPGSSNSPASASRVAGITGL

Row | Compound | IC50 [nM]
1 | COc1cccc(F)c1-c1nc(Nc2cc(N3CCC[C@H](N)C3)c(C#Cc3cnn(C(F)(F)F)c3)cn2)ccc1[N+](=O)[O-] [Example 156, 4-((S)-3-aminopiperidin-1-yl)-N-(6-(2-fluoro-6-methoxyphenyl)-5-nitropyridin-2-yl)-5-((1-(trifluoromethyl)-1H-pyrazol-4-yl)ethynyl)pyridin-2-amine hydrochloride] | ≤ 10
2 | COc1cccc(F)c1-c1nc(Nc2cc(N3CCC[C@H](N)C3)c(-c3cnn(C4CCOCC4)c3)cn2)ccc1C(=O)N(C)C [Example 130, 6-((4-((S)-3-aminopiperidin-1-yl)-5-(1-(tetrahydro-2H-pyran-4-yl)-1H-pyrazol-4-yl)pyridin-2-yl)amino)-2-(2-fluoro-6-methoxyphenyl)-N,N-dimethylnicotinamide hydrochloride] | ≤ 10
3 | COc1cccc(F)c1-c1nc(Nc2cc(N3CCC[C@H](N)C3)c(-c3cnn(C4CC4)c3)cn2)ccc1C#N [Example 329, 6-((4-((S)-3-aminopiperidin-1-yl)-5-(1-cyclopropyl-1H-pyrazol-4-yl)pyridin-2-yl)amino)-2-(2-fluoro-6-methoxyphenyl)nicotinonitrile hydrochloride] | ≤ 10
4 | COc1cccc(F)c1-c1nccc(Nc2cc(N3CCC[C@H](CF)C3)c(-c3cnn(C(F)F)c3)cn2)n1 [Example 272, (S)-N-(5-(1-(difluoromethyl)-1H-pyrazol-4-yl)-4-(3-(fluoromethyl)piperidin-1-yl)pyridin-2-yl)-2-(2-fluoro-6-methoxyphenyl)pyrimidin-4-amine] | ≤ 10
5 | CCN[C@H]1CCN(c2cc(Nc3ccnc(-c4c(F)cccc4OC)n3)ncc2-c2cnn(C3CCOCC3)c2)C1 [Example 125, (S)-N-(4-(3-(ethylamino)pyrrolidin-1-yl)-5-(1-(tetrahydro-2H-pyran-4-yl)-1H-pyrazol-4-yl)pyridin-2-yl)-2-(2-fluoro-6-methoxyphenyl)pyrimidin-4-amine] | ≤ 10
6 | COCCOc1ccc(-c2cnc(Nc3ccnc(-c4c(F)cccc4OC)n3)cc2N2CCC[C@H](N)C2)cn1 [Example 230, (S)-4-(3-aminopiperidin-1-yl)-N-(2-(2-fluoro-6-methoxyphenyl)pyrimidin-4-yl)-6′-(2-methoxyethoxy)-[3,3′-bipyridin]-6-amine] | ≤ 10
7 | COc1cccc(F)c1-c1nccc(Nc2cc(N3CCC[C@H](O)C3)c(-c3cnn(C4CCOC4)c3)cn2)n1 (stereo partly drawn) [Example 14, (3S)-1-(2-((2-(2-fluoro-6-methoxyphenyl)pyrimidin-4-yl)amino)-5-(1-(tetrahydrofuran-3-yl)-1H-pyrazol-4-yl)pyridin-4-yl)piperidin-3-ol] | ≤ 10
8 | 6-((6-(2-fluoro-6-methoxyphenyl)-5-nitropyridin-2-yl)amino)-N-((1R,3S)-3-hydroxycyclopentyl)-4-((S)-3-hydroxypiperidin-1-yl)nicotinamide [Example 195] | ≤ 10
9 | COc1cccc(F)c1-c1nccc(Nc2cc(N3C[C@@H](N)CC[C@H]3C)c(-c3cnn(C(F)F)c3)cn2)n1 [Example 252, N-(4-((2R,5S)-5-amino-2-methylpiperidin-1-yl)-5-(1-(difluoromethyl)-1H-pyrazol-4-yl)pyridin-2-yl)-2-(2-fluoro-6-methoxyphenyl)pyrimidin-4-amine] | ≤ 10
10 | COc1cccc(F)c1-c1nccc(Nc2cc(N3CCC[C@H](C(N)=O)C3)c(-c3cnn(C4CCOCC4)c3)cn2)n1 [Example 50, (S)-1-(2-((2-(2-fluoro-6-methoxyphenyl)pyrimidin-4-yl)amino)-5-(1-(tetrahydro-2H-pyran-4-yl)-1H-pyrazol-4-yl)pyridin-4-yl)piperidin-3-carboxamide] | > 100
11 | COc1cc(C(=O)N2CC(F)(F)C2)cc(F)c1-c1nccc(Nc2cc(N3CCC[C@H](O)C3)c(-c3cnn(C(F)F)c3)cn2)n1 [Example 231, (S)-(3,3-difluoroazetidin-1-yl)(4-(4-((5-(1-(difluoromethyl)-1H-pyrazol-4-yl)-4-(3-hydroxypiperidin-1-yl)pyridin-2-yl)amino)pyrimidin-2-yl)-3-fluoro-5-methoxyphenyl)methanone] | ≤ 10
